Reference: US20260265696A1, “HUMAN IPSC DERIVED AMELOBLASTS AND USES THEREOF” (UNIVERSITY OF WASHINGTON, priority 2021, published 2026)

System: hiPSCs (WTC-11) differentiating to ameloblasts (iAM)
Test: AMBN expression (QRT-PCR) in hiPSC-derived ameloblast (iAM) differentiation, day 10 to day 16, factors removed or added
Assay type: cell-based, human
Settings: for expression of AMBN when the factor is removed: factor removed independently from differentiation day 10 to day 16, compared to when all factors are present
Experimental: FIGS. 7A-7E: (FIG. 7A) Schematic of the 16-day differentiation protocol produced, which targets the identified signaling pathways utilizing growth factors and small molecules to transition through the ameloblast developmental trajectory. […] Each study was performed in triplicate, with error bars representing SEM. (FIG. 7C) The efficiency of each pathway activated in the differentiation from day 10 to day 16 were assessed by removing each agonist one at a time or adding FGFR2 mini binder to inhibit the FGFR2 pathway. AMBN expression was assessed in QRT-PCR, and each condition was performed in triplicate. Significance was determined by unpaired Student's t-test; ***p<0.001; ****p<0.0001; Graph error bars are the means±SEM.
To dissect which pathways were essential for the differentiation from day 10 to day 16, the process of elimination was used (FIG. 7C). […] It was hypothesized that the cells in culture secrete enough FGF ligands to saturate the receptors, and any exogenous ligands would have minimal effects. To test this hypothesis, a computationally designed protein was used, FGFR2 mini-binder (FGFR-mb), that specifically binds and inhibits the activity of the FGFR2 (Cao et al., 2022). […] This marks the importance of highly specific AI-designed mini-proteins in analyzing the requirement of signaling pathways in differentiation. It is plausible that temporal preciseness and high penetrance, combined with specificity of designed mini-binders to their targets may partially out-compete in the future genetic perturbations of signaling pathway in iPSC derived differentiation paradigms.
Briefly, hiPSCs (WTC-11 human induced pluripotent stem cells) (Coriell, #GM25256) were seeded on 12-well plates coated with growth factor-reduced Matrigel (Corning, #356231) and cultured in mTeSR1 stem cell medium (StemCell Technologies, #85850) until cells reach confluency with medium changes daily. On the first day of differentiation (deemed Day 0), stem cell media is replaced with ameloblast base media consisted of either EpiCult-C media (StemCell Technologies, #05630) or RPMI 1640 Medium (Thermo, #11875093) mixed with EpiLife (Thermo, #MEPI500CA) at 1:1 ratio, supplemented with 0.1× supplement S7 (Thermo, #S0175), 0.1 uM β-mercaptoethanol (BME) (Sigma, #M7522) and 400 um smoothened agonist (SAG) (Selleckchem, #S7779). At day 3 of differentiation 150 μM of bone morphogenic protein-4 (BMP4) (rndsystems, #314-BP-010) is continuously added daily till day 7. At day 8, the base media is supplemented with 1 uM of BMP-I inhibitor (LDN-193189) (Tocris, #6053), 5 uM of GSK3-Inhibitor (CHIR99021) (Selleckchem, #4423), 500 μM epidermal growth factor (EGF) (rndsystems, #236-EG) and 3.5 μM of Neurotrophin-4 (NT4) (rndsystems, #268-N4). The cultures were then harvested at day 10 at an oral epithelium stage, or extended to day 16 by adding 300 μM BMP4, and 800 nM transforming growth factor beta 1(TGFβ1) (rndsystems, #7754-BH) for the early ameloblast stage at day 16. For testing FGFR signaling requirement for the maturation process we added 50 nM purified FGFR-mb (see below) to the media at day 14 and harvested the samples at day 16 of the differentiation.
RNA was extracted using Trizol (Life Technologies) according to manufacturer's instructions. RNA samples were treated with Turbo DNase (Thermo Fisher Scientific) and quantified using Nanodrop ND-1000. Reverse transcription was performed using iScript cDNA Synthesis Kit (Bio-Rad). […]

Compound: Cc1cnc(-c2cnc(NCCNc3ccc(C#N)cn3)nc2-c2ccc(Cl)cc2Cl)[nH]1 [GSKi, 6-[[2-[[4-(2,4-dichlorophenyl)-5-(5-methyl-1H-imidazol-2-yl)-2-pyrimidinyl]amino]ethyl]amino]-3-pyridinecarbonitrile, reference compound]
- expression of AMBN when the factor is removed: completely abolished AMBN expression

Compound: CN[C@H]1CC[C@H](N(Cc2cccc(-c3ccncc3)c2)C(=O)c2sc3ccccc3c2Cl)CC1 [SAG, 3-chloro-N-[(1r,4r)-4-(methylamino)cyclohexyl]-N-[3-(pyridin-4-yl)benzyl]benzo[b]thiophene-2-carboxamide, reference compound]
- expression of AMBN when the factor is removed: significantly reduced to less than half

Compound: EGF: epidermal growth factor (NSDSECPLSHDGYCLHDGVCMYIEALDKYACNCVVGYIGERCQYRDLKWWELR; Epidermal growth factor; UniProt P01133 971-1023, looked up)
- expression of AMBN when the factor is removed: significantly reduced to less than half

Compound: TGFβ1: transforming growth factor beta 1
- expression of AMBN when the factor is removed: significantly reduced to less than half

Compound: bFGF: exogenous FGF ligand added to the differentiation
- AMBN expression on adding bFGF (bFGF added to differentiation day 10 to day 16): no significant effect
